We go through 2 molecules from patent publication US4981856A, “Anti-tumor agents” (Imperial Chemical Industries PLC, priority 1987, dated 1991).

pIC50: −log10 of the molar value.

For series [1], the target named is thymidylate synthetase (Mus musculus, UniProt P07607). In words: inhibitory effect on the enzyme thymidylate synthetase in vitro. Conditions: in vitro enzyme inhibition; read-out: IC50 against thymidylate synthetase. Type of series: biochemical. The text has this:
(§1) Compounds of this type are believed to act as anti-tumour agents by inhibiting the enzyme thymidylate synthetase. Their anti-tumour activity may be assessed in vitro by determining their inhibitory effect on that enzyme, and in cell cultures by their inhibitory effect on the cell line L1210.
(§2) As also stated above a quinazoline of the invention is believed to act as an anti-tumour agent by inhibiting the enzyme thymidylate synthetase. This anti-tumour activity may be assessed in vitro by determining the inhibitory effect on that enzyme and is cell cultures by the inhibitory effect on the mouse leukaemia cell line L1210 (UK Patent Specification No. 2065653B).

Series [2] deals with L1210 cell line. Put plainly: inhibitory effect on the mouse leukaemia cell line L1210 in cell culture. Type of series: cell-based. The note with it: read-out: IC50 against the L1210 cell line.
Excerpt: as §1, §2

For series [3], the system named is humans. The note with it: particularly in relation to the liver and kidney; cited from earlier work.

The pIC50 is −log10 of the IC50, conventionally taken in molar units.

thymidylate synthetase, sequence (P07607 whole entry): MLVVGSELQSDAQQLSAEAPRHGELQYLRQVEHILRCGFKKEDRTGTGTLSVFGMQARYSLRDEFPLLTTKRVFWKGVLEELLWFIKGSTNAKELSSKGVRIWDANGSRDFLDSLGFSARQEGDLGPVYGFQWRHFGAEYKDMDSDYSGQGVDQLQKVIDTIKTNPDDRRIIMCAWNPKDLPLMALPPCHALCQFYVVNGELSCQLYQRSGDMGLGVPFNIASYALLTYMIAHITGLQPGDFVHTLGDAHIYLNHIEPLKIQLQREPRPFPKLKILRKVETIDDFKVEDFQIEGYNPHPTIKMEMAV

On to `C#CCN(Cc1cc2c(=O)[nH]c(C)nc2cc1C)c1ccc(C(=O)N[C@@H](CCC(=O)O)C(=O)O)cc1` [N-[p-[N-(3,4-dihydro-2,7-dimethyl-4-oxoquinazolin-6-ylmethyl)-N-(prop-2-ynyl)amino]benzoyl]-L-glutamic acid], for which the negative logarithm of the IC50 (pIC50) in series [1] is 7.52; in series [2] it was 6.74.

Consider `C#CCN(Cc1ccc2nc(N)[nH]c(=O)c2c1)c1ccc(C(=O)N[C@@H](CCC(=O)O)C(=O)O)cc1` [CB3717], for which the “symptoms of toxicity in humans” value in series [3] is “shows symptoms of toxicity in humans, particularly in relation to the liver and kidney”.
